Results: ChEMBL document CHEMBL3507680, “University of Dundee, Gates Library screen for HepG2 cell viability”

Assay: Human HepG2 cell viability assay in 384 well format
Type: toxicity, cell-based
Set-up: dose 125 nL, time 70.5 hour; cytotoxicity at 70.5 h: concentration not given beside the values
Conditions: HepG2 cells, read-out: Inhibition

In order of falling cytotoxicity at 70.5 h:
1. c1ccc(Cc2nc(C3CC3)nn2-c2ccc3c(c2)OCCO3)nc1  43.6%
2. O=C(CN1CCOC(Cn2cccn2)C1)Nc1nncs1 (stereo not drawn)  34.7%
3. Cc1ccoc1C(=O)N1C[C@@H]2[C@@H](C1)OCC(=O)N2Cc1cccnc1  29.7%
4. CCc1ncnc2c1CCN(Cc1ccccn1)CC2  28%
5. O=C1CCCN1C1CCN(S(=O)(=O)CCOc2ccc(F)cc2)CC1  23.9%
6. CCN1CC2(CCN(Cc3nc(CSC)no3)CC2)CC1=O  23.5%
7. CCCc1noc(-c2ccc(-n3ncc(C(=O)O)c3C)nc2)n1  23.5%
8. Cn1ncc(N2CCOC(CCNC(=O)NC(C)(C)C)C2)cc1=O (stereo not drawn)  19.2%
9. Cc1cccc(NC(=O)c2cccc(OCc3nnnn3C)c2)n1  18.7%
10. Nc1nnc(SCC(=O)NCC(O)c2ccccc2)s1 (stereo not drawn)  18.6%
11. Cc1cc(C)c2nc(C)cc(C(=O)N3CC(O)CO3)c2c1 (stereo not drawn)  17.6%
12. CCn1c(CNC(=O)Nc2nc(C)c(C)o2)nc2ccccc21  14.3%
13. COCCOC(=O)N1CCn2nc(CN(C)Cc3nccs3)cc2C1  13.8%
14. O=C(NC1CCNCC1)C1(N2CCCCC2)Cc2ccccc2C1  13.5%
15. CC(=O)N1CCC(Nc2cc(F)ccc2OCC2CCCO2)CC1 (stereo not drawn)  11.4%
16. CCC(NCCn1cc(C)cn1)C(=O)Nc1cc(C)on1 (stereo not drawn)  10.8%
17. COc1ccc2c(=O)n(CC3CCCN(C)C3)ccc2c1OC (stereo not drawn)  10.5%
18. CCN(C)CC1CCN(c2ncc(Br)cn2)C1 (stereo not drawn)  9.92%
19. CN(CCc1ccncc1)Cc1nccn1Cc1ccccc1  8.96%
20. CCc1nc(C2CCCN2C(=O)C2=COCC2)no1 (stereo not drawn)  6.98%
21. CC(=O)c1ccccc1NC(=O)CCN1CCSCC1  6.67%
22. CC(=O)N1CCCN(Cc2nnc(C(C)(C)C)o2)CC1  5.23%
23. Cn1c(C2CC2)nc2c1CCN(CCOc1cccc(F)c1)C2  5.07%
24. CN1CCOC(CNCC(=O)NCCCc2ccccc2)C1 (stereo not drawn)  4.87%
25. O=S(=O)(c1cc2ccccc2o1)N1CCCC1  4.69%
26. Cc1ccc(OCC(O)CN(C)CC(=O)NC(C)C)c(C)c1 (stereo not drawn)  3.84%
27. OC1CCN(CCCNc2ncccn2)CC1  3.78%
28. Fc1ccc(C2(CNC3=NCCN3)CCCC2)cc1  3.33%
29. COC(=O)N1CC(C)=C(C)CN1C(=O)Nc1ccc(Cl)cc1  3.18%
30. CC(NCc1nnc2n1CCCC2)c1nc(-c2cccs2)no1 (stereo not drawn)  2.78%
31. O=C(O)CSc1nc(-c2ccc3c(c2)CCC3)n[nH]1  2.18%
32. Cc1ccc(-c2n[nH]cc2CNCCn2cccn2)o1  2.17%
33. O=C(c1cccnc1SC/C=C/c1ccccc1)N1CC[C@H](O)C1  2.11%
34. CCOC1CCN(C(=O)c2cnn(-c3ccccc3Cl)c2)CC1  2.04%
35. COCCCN(C)C(=O)c1nnn(-c2ccccc2Cl)c1C  1.5%
36. O=S(=O)(Cc1ccccc1)N1CCCn2cnc(CN3CCCC3)c2C1  0.898%
37. Cc1noc(C)c1-c1ccnc(C2CCN(C3CCOCC3)CC2)c1  0.77%
38. Cc1cc(NCCO)nc(N2CCC(Cc3ccccc3)CC2)c1C#N  0.669%
39. CN(C)c1ccc(NC(=O)c2ccnn2C)nc1  0.439%
40. O=C1CCCC2=C1C(c1ccccc1Cl)Nc1nonc1N2 (stereo not drawn)  0.0122%
41. Cc1ccc(CN2C[C@H]3CC[C@@H]2CN(Cc2[nH]cnc2C)C3)o1  -0.228%
42. COCCn1cc(-c2cc(C(=O)N3CCCC3)c3ccccn23)nc1C  -0.704%
43. O=C(Nc1ccccc1)C1CCCN(C(=O)Cn2cncn2)C1 (stereo not drawn)  -0.859%
44. CN1CCOC(CNCCc2ccccn2)C1 (stereo not drawn)  -1.1%
45. Cc1cc(C(=O)NCc2c(C)nn(C)c2C)nc(N2CCOCC2)n1  -1.14%
46. Cc1ccc(NCc2cncc3c2CCN(C(=O)C2CC=CC2)C3)nn1  -1.58%
47. Cc1n[nH]c(C)c1CCNC(=O)C1CCCN(CC(N)=O)C1 (stereo not drawn)  -1.91%
48. O=C1NCCN(CC2CCCCC2)C1CC(=O)N1CCc2n[nH]cc2C1 (stereo not drawn)  -1.96%
49. CC(C)N1CCC(CC(=O)NCc2cc(O)ncn2)CC1  -2.08%
50. Cc1cc2ncn(C(=O)N3CCCC3)c2cc1C  -2.26%
51. O=S1(=O)c2cccnc2OC(COc2ccccc2)CN1CC1CC1 (stereo not drawn)  -2.28%
52. CCn1cc(NC(=O)C2CCC(=O)N2Cc2ccc(C)o2)cn1 (stereo not drawn)  -2.42%
53. CN(C)CCNC(=O)[C@H]1C[C@H]2CN(c3ncccn3)C[C@H]2N1C  -2.47%
54. CC(C)c1nnc(N2C[C@@H]3CC[C@H](C2)N(CC2CCC2)C3)s1  -2.56%
55. O=C(NCCNc1ncccn1)N1CCN(c2nccs2)CC1  -2.7%
56. CN(C)C[C@@H]1C[C@@H]2CN(c3ncc(F)cn3)CC[C@@H]2N1C  -3.26%
57. O=C(c1cnco1)N1C[C@@H]2CC[C@H](Oc3cccc(F)c3)[C@@H]2C1  -3.26%
58. CCc1ccc(CN2CC[C@@H]3CN(S(C)(=O)=O)CCO[C@@H]3C2)o1  -3.27%
59. CCC(=O)N1CCC(c2ncc(C(=O)Nc3ccccc3)c(C)n2)C1 (stereo not drawn)  -3.38%
60. CN1CCCC(CCCc2cccnc2)(C(N)=O)C1 (stereo not drawn)  -3.41%
61. CCc1ccccc1Nc1noc2c1CN(C(=O)C1CCCO1)CC2 (stereo not drawn)  -3.46%
62. COc1cccc(CC(=O)N2CC[C@@H]3CN(C)S(=O)(=O)[C@@H]3CC2)c1  -3.48%
63. CC1CN(Cc2cc(C#N)ccc2F)CCN1Cc1nccn1C (stereo not drawn)  -3.5%
64. O=C1CCc2cc(OCCN3CCc4cncnc4C3)ccc2N1  -3.56%
65. O=C(c1ccc2ccccc2c1)C1CCCN(C(=O)Cn2cnnn2)C1 (stereo not drawn)  -3.65%
66. Cc1ccoc1C(=O)N1CCc2ccc(=O)n(CCN(C)C)c2CC1  -3.74%
67. COc1ccc(CN(C)Cc2cccc(C#N)c2)c(OC)c1  -3.94%
68. CC(C)C(=O)NC1CCCN(C(=O)c2cc3ccccc3cc2O)C1 (stereo not drawn)  -4.18%
69. CC(C(=O)N1CCCC1)N1CCC(c2nccn2CC2CCC2)CC1 (stereo not drawn)  -4.27%
70. c1cc2nc(C3CCN(CC4CC4)CC3)nn2cc1N1CCCC1  -4.49%
71. O=C(NCc1ccccc1F)NC1CCCN(c2ncccn2)C1 (stereo not drawn)  -4.69%
72. O=C(Nc1ccccc1)N1C[C@H]2CC[C@@H]1CN(Cc1ccccc1)C2  -4.8%
73. Cc1nc(C(Cc2ccsc2)NC(=O)CN2CCOCC2)sc1C (stereo not drawn)  -4.95%
74. CCCn1nc(C)c(C(=O)N(C)[C@@H]2CC[C@@H](N3CCCC3)[C@@H]2O)c1C  -5.14%
75. CSc1ncc(C(=O)N(C)C(C)Cc2ccccn2)cn1 (stereo not drawn)  -5.33%
76. Cc1nn(C)cc1-c1ccnc(N(C)Cc2ccon2)n1  -5.47%
77. CCCN(Cc1ccccc1O)S(=O)(=O)C(C)CC (stereo not drawn)  -5.52%
78. Cc1nc(C2CCCN2Cc2ccon2)no1 (stereo not drawn)  -5.54%
79. CCCS(=O)(=O)N1CCC2(CCCN(c3ncc(F)cn3)C2)C1 (stereo not drawn)  -6.01%
80. CN1CCN(Cc2cccnc2)C2(CCN(c3ncc(F)cn3)C2)C1=O (stereo not drawn)  -6.18%
81. CNC(=O)[C@@]12CCO[C@@H]1CCN(Cc1c(C)noc1C)C2  -6.35%
82. COCC(=O)N1CCC(c2nc3ccc(-c4ccncc4)cn3n2)CC1  -6.45%
83. Cc1cccc(CN2CC[C@@H]3O[C@@H](C(=O)N4CCN(C)CC4)C[C@@H]32)c1  -6.66%
84. CC(C)NC(=O)c1cc(Br)c2c(c1)OCCO2  -6.96%
85. Cn1[nH]c(Br)c2/c(=N\CCN)ncnc1-2  -7.01%
86. OCC1N(Cc2ccc(F)cc2)[C@H]2CC[C@]1(O)CC2 (stereo partly drawn)  -7.04%
87. CCc1c(C)[nH]c(C(C)(C)N)nc1=O  -7.1%
88. Cc1cccc(OCCNC(=O)CN2CCc3cncnc3C2)c1  -7.19%
89. CCOc1cccc2c1OCC(C(=O)NS(=O)(=O)c1ccc(Cl)s1)=C2  -7.24%
90. CCN1CC(COC(=O)c2cc(C)nn2CC)CC1=O (stereo not drawn)  -7.36%
91. CCOCc1nn(CC2CC2)c2c1CN(C(=O)c1ccno1)CC2  -7.44%
92. Cc1ncsc1CNCC(C)c1nc2ccccc2o1 (stereo not drawn)  -7.51%
93. CN1CCCC(c2cccc(CCC(=O)NCc3ccccn3)n2)C1 (stereo not drawn)  -7.64%
94. COc1cccc(NC(=O)NCc2cnn(C)c2)c1  -7.74%
95. N#Cc1ccc(CNC(=O)NC2CCN(c3ncccn3)CC2)cc1  -7.8%
96. CN(Cc1csc2ccccc12)C(=O)NC1CCS(=O)(=O)C1 (stereo not drawn)  -7.9%
97. CCc1ccc(C(COC)NC(=O)c2ccc(NC(C)=O)cc2)o1 (stereo not drawn)  -8.16%
98. O=S1(=O)CCC(NCCn2cncc2-c2ccc3c(c2)CCCO3)C1 (stereo not drawn)  -8.18%
99. O=C(NC1CC1)[C@@H]1CCO[C@@H]2CCN(C3CCOCC3)C[C@@H]21  -8.31%
100. CCOc1cccc2c1OCC(=O)N(c1ccc(N(C)C)cc1)C2  -8.85%
101. O=C(O)c1c(Cl)ncn1-c1ccccc1  -9.78%
102. Cc1ccc(S(=O)(=O)Nc2ccc(N3CCSCC3)c(C(=O)O)c2)s1  -10.2%
103. COC[C@]12COC[C@H]1CN(Cc1cc(OC)cc(OC)c1)C2  -10.3%
104. CN(C)C(=O)Cn1cnc2c(Br)cccc2c1=O  -10.4%
105. CN(CCc1cnn(C)c1)C(=O)C1COc2ccccc2C1 (stereo not drawn)  -10.5%
106. Cc1nccn1C1CCCN(C(=O)c2cccc(S(C)(=O)=O)c2)C1 (stereo not drawn)  -11.1%
107. CS(=O)(=O)N1CCN(CC(O)COc2ccc(F)cc2)CC1 (stereo not drawn)  -11.1%
108. O=C(CCN1C(=O)CCC1=O)NCC1(c2c(F)cccc2F)CCCC1  -11.2%
109. OC1(CN2CCN(c3cccc(C(F)(F)F)c3)CC2)CNCCOC1 (stereo not drawn)  -12%
110. CC(C)(C)OC(=O)Cn1cccc(S(=O)(=O)N2CCCCCC2)c1=O  -12.4%
111. CCN1CCCCC1C(=O)N1CCc2onc(-c3ccc(Cl)cc3)c2C1 (stereo not drawn)  -12.9%
112. COC1CCN(c2ccc(F)cc2CN(C)C(=O)c2cc[nH]n2)CC1  -13.3%
113. COC(=O)N1C[C@H]2CC[C@@H]1CN(Cc1ccncc1)C2  -14.2%
